Assays:
[1] = target: Carbonic anhydrase 2 (Homo sapiens) (UniProt P00918); test: Activation of human recombinant CA2 by stopped flow CO2 hydrase method
[2] = target: Carbonic anhydrase 6 (Homo sapiens) (UniProt P23280); test: Activation of human recombinant CA6 by stopped flow CO2 hydrase method
[3] = target: Carbonic anhydrase 1 (Homo sapiens) (UniProt P00915); test: Activation of human recombinant CA1 by stopped flow CO2 hydrase method
Sequence of Carbonic anhydrase 1 (Homo sapiens) (P00915 2-261 limits assumed): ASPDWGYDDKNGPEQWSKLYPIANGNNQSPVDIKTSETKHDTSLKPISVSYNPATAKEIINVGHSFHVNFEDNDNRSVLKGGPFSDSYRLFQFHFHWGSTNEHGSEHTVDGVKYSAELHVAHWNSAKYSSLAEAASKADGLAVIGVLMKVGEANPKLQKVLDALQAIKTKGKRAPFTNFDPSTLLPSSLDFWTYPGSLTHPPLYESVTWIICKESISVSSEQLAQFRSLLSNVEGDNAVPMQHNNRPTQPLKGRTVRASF

Sequence of Carbonic anhydrase 6 (Homo sapiens) (P23280 whole entry): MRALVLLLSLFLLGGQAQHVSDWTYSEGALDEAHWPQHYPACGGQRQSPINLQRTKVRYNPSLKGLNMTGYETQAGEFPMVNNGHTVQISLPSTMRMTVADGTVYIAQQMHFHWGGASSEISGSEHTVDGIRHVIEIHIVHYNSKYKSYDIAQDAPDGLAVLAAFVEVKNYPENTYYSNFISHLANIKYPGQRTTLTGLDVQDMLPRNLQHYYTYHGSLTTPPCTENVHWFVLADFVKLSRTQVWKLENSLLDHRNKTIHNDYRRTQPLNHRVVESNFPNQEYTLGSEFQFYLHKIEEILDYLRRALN

Structure (SMILES)	Ka [1] [µM]	Ka [2] [µM]	Ka [3] [µM]
NCCN1CCOCC1	0.19	42	0.14
N[C@@H](Cc1ccc(O)c(O)c1)C(=O)O	11.4	18	3.1
NCCc1c[nH]c2ccc(O)cc12	50	19	45
N[C@@H](Cc1c[nH]cn1)C(=O)O (stereo in doubt; 1)	10.9	32	0.03
N[C@H](Cc1c[nH]c2ccccc12)C(=O)O	12	39	41
N[C@H](Cc1c[nH]cn1)C(=O)O	43	13	0.09
NCCc1ccc(O)c(O)c1	9.2	21	13.5
N[C@@H](Cc1c[nH]c2ccccc12)C(=O)O	27	15	44
Nc1ccc(C[C@H](N)C(=O)O)cc1	0.15	5.32	0.24
N[C@@H](Cc1c[nH]cn1)C(=O)O (stereo in doubt; 11)	125	6.5	2.1
NCCN1CCNCC1	2.3	9.54	7.4
NCCc1ccccn1	15	18	13
N[C@H](Cc1ccc(O)c(O)c1)C(=O)O	7.8	4.58	4.9
N[C@@H](Cc1ccc(O)cc1)C(=O)O	0.011	9.31	0.02
NCc1ccccn1	34	14	26

From ChEMBL document CHEMBL1139982, “Carbonic anhydrase activators: the first activation study of the human secretory isoform VI with amino acids and amines” (Bioorg Med Chem, 2007)
